Assay results from patent US5409946A, “Isoxazole, isothiazole and pyrazole compounds that enhance cognitive function” (Abbott Laboratories, priority 1993, dated 1995).
Values joined by “and” are separate entries in the source; they are usually repeats but may differ in a detail not shown here. Equal values may be shown once. “Also recorded” adds a separate entry of the source. Read-outs that look alike come from different tables or passages of the source.

Columns and labels:
[1] = molecular target: muscarinic receptors; format: binding, rat; conditions: Table 2
Description: The potencies of ligand binding at central muscarinic binding sites were determined by analysis of competition with the specific muscarinic receptor radioligand [^3 H]-quinuclidinyl benzilate ([^3 H]-QNB). […] Competition between various concentrations of putative nicotinic ligand compounds and 0.2 nM [^3 H]-QNB was performed at 25° C. in an assay volume of 1 mL. After 75 minutes, the bound radioligand was separated by vacuum filtration on Whatman GF/B glass fiber filters. Non-specific binding was defined as radioactivity remaining in the presence of 10 μM atropine. Competition curves were analyzed for Ki values as described above for binding to the nicotinic receptor.

[2] = molecular target: neuronal nicotinic receptors; assay: Displacement of [3H]-MCC or [3H]-cytisine from neuronal nicotinic receptors, whole rat brain membranes; format: binding
Description: Binding of [^3 H]-methylcarbamylcholine ([^3 H]-MCC) or [^3 H]-cytisine ([^3 H]-CYT) to nicotinic receptors was accomplished using crude synaptic membrane preparations from whole rat brain (Snyder and Enna, Brain Research, 1975, 100:81). Washed membranes were stored at -80° C. prior to use. Frozen aliquots were slowly thawed and resuspended in 20 volumes of buffer (containing: 120 mM NaCl, 5 mM KCl, 2 mM MgCl2, 2 mM CaCl2 and 50 mM Tris-Cl, pH 7.4 @4° C). After centrifuging at 20,000 X g for 15 minutes, the pellets were resuspended in 30 volumes of buffer. Homogenate (containing 125-150 μg protein) was added to triplicate tubes containing concentrations of test compound and [^3 H]-MCC (3 nM) in a final volume of 500 μL. Samples were incubated for 60 minutes at 4° C., then rapidly filtered through Whatman GF/B filters presoaked in 0.5% polyethylimine using 3×4 mL of ice-cold buffer. Alternately, homogenate and test compound were incubated for 75 min with [^3 H]-CYT (1.3 nM), then rapidly filtered, as described above. The filters are counted in 4 mL of Ecolume® (ICN). […] IC50 values were determined with the ALLFIT nonlinear least squares curve-fitting program and IC50 values were converted to Ki values using the Cheng and Prusoff correction (Ki =IC50 /(1+[ligand]/Kd of ligand)). Alternately, data were expressed as a percentage of the total specific binding.

[3] = in vivo; cited from earlier work
[4] = system: time spent in the open arms (anxiolytic activity); assay: Mouse elevated plus-maze; format: in vivo, CD1 mice; conditions: i.p., p<0.05; for Elevated Plus-Maze (EPM) result: time in open arms
Text: (§1) The mouse elevated plus-maze is a commonly-used conflict test that probes anxiolytic activity of test compounds (Lister, Psychopharmacology, 1987, 92 180). It is based on the fact that exposure of mice to an elevated open arm leads to an avoidance response considerably stronger than that evoked by exposure to an enclosed arm.
The apparatus required to perform this test is made of plywood and consists of two open arms (17×8 cm) and two enclosed arms (17×8×15 cm) extending from a central platform (8×8 cm). It is mounted on a plywood base rising 39 cm above the floor. Mice are released on the central platform and the time spent in the open and enclosed arms is recorded during a 5 minute test period.
The compound of Example 2 (0.0108-1.08 μmol/kg, i.p.) was administered to CD1 mice (n=12 per group) 15 minutes before the test.

[5] = system: neuronal nicotinic cholinergic channels in PC12 cells; assay: Cholinergic channel activator action in PC12 cells, whole-cell patch-clamp; format: cell-based, rat
Description: Electrophysiologic recordings were obtained from differentiated (neurite-bearing) cells after 4-7 days exposure to NGF. […] After 20 minutes, differentiating medium was added (DMEM containing 100 ng/ml nerve growth factor, 5% heat-inactivated fetal calf serum and 2.5% heat-inactivated horse serum) and the cells were refed with this medium every 3 days.
The intracellular (recording pipette) solution consisted of 140 mM KCl, 1.0 mM CaCl2, 2.0 mM MgCl2, 11 mM K-EGTA, and 10 mM K-HEPES buffer (7.3 pH, 315 mOsm). Osmolarities were adjusted using dextrose such that the extracellular solution was 10 mOsm hypertonic compared to the intracellular solution. Voltage-gated inward (sodium) and outward (potassium) currents were monitored throughout the experiment to determine establishment and maintenance of the whole-cell recording configuration.

[6] = system: 1-4 Hz slow wave EEG; assay: 1-4 Hz slow wave EEG amplitude; format: in vivo, male Wistar rats
[7] = system: anxiety induced by (-)-nicotine withdrawal; assay: Elevated plus-maze 48 hours after withdrawal of 14-day chronic (-)-nicotine; format: in vivo, rats
Text: as §1, with “a” for “a commonly-used”, “92:180).” for “92 180).”, “arm. Compounds may be tested for their ability to modify the avoidance response of the animal to the open arm maze. […] The effect of such potential anti-anxiety drugs may be tested further in a withdrawal challenge test.” for “arm.”
Elevated Plus-Maze: The procedure originally described by Pellow et al., for rats was used, with minor modifications (Pellow et al., J. Neurosci. Meth., 14: 149, 1985). The apparatus consisted of two open arms (50×10 cm) and two enclosed arms (50×10×40 cm) extending from a central platform (10×10 cm). It was mounted on a base raising 50 cm above the floor. Light levels on the open and enclosed arms were similar. The animals were placed in the center of the maze and the time spent in the open arms and the total distance traveled by the rat were recorded automatically by a camera mounted above the apparatus, then analyzed by computer (Videomex™ software, Columbus Instruments, Columbus, Ohio). All animals used were naive to the apparatus. Animals were injected i.p. with saline or the different drug doses, and submitted to the test 30 minutes later. The test lasted 5 minutes, and the apparatus was thoroughly cleaned after removal of the animal.
The pumps were removed on day 14 and the animals were tested in the plus-maze 48 hours later, at the time when a state of withdrawal-induced anxiety was present in the rats. On the test day i.p. doses of either saline or the compound of Example 2 were administered to the animals 30 minutes before the test. Data (Table 13) represent the mean ±SEM time spent in the open arms of the plus-maze of 8-16 rats.

[8] = system: spike wave discharges; assay: Attenuation of petit mal absence-like spike wave discharges (EEG); format: in vivo, male Wistar rats; conditions: for effect on incidence of spike wave discharges: i.p., 20 min waking immobility, p<0.05 where significant; for Total spike wave duration: 5.0 μmol/kg i.p.
Description: Animals: Male albino rats of the Wistar strain (CAMM Research) were maintained on a 12:12 hour light-dark cycle and individually housed throughout these experiments. They were fed standard rodent diet with food and water provided ad libitum.
EEG Recordings: To record spike wave discharges, rats were surgically implanted with permanently affixed EEG electrodes over the frontal codex using previously described techniques (Radek, Brain Res., 1993, in press). After at least a ten day recovery from this surgery, EEG recordings were made inside darkened sound attenuating chambers. Rats were allowed to move freely within the chambers and computerized activity monitors recorded animal motion during these studies. Only those rats that express spike wave discharges, as identified from preliminary recordings, were used to test the effects of nicotinic agents.
Drug studies: EEG recordings were obtained from each rat for a period of 20 minutes of total waking immobility immediately after administration of drug, or a drug-free control solution. Immobility was characterized as the absence of infrared beam interruptions from the activity monitor system. Spike wave activity was identified as regular 6-10 Hz complexes with amplitudes of 0.4 to 1.0 mV. The total spindling duration for 20 minutes of waking immobility was calculated by determining the length (in seconds) of each spike wave burst, and adding each of these times together to obtain a total spindle time for the recording session. Each rat was administered the control solution and one or two doses of the test compounds and each dosing was given at least 48 hours after the previous treatment.
The compound of Example 2 was dissolved in saline to the desired concentration.

[9] = system: effects of ethanol; conditions: administered directly into the brain; ethanol i.p.; cited from earlier work
[10] = system: retention of the avoidance response; assay: Inhibitory avoidance test; format: in vivo; conditions: i.p. 15 min before training, retention at 24 h, p<0.05
Text: The inhibitory (or sometimes called passive) avoidance (IA) test is a well-accepted animal model for learning/memory and is widely used to assess the activity of novel cognition enhancers in enhancing cognitive function (Wanibuchi et al., Eur. J. Pharmacol., 1990, 187:479). According to this test, animals are placed in the illuminated (12×14×11 cm) portion of a two-chambered box, from which they enter through a guillotine door to the larger (24×13.5×12 cm) dark compartment of the box. Entry to the dark compartment is accompanied by a mild (0.35 mA), brief (2 seconds) footshock. Initial latencies to cross are recorded, with an imposed 60 second ceiling. Following a 24 hour retention interval, animals are returned to the illuminated chamber, and latency to return to the dark compartment is again recorded, with a ceiling of 180 seconds. No footshock is administered on the test day.
Twelve animals were used in each group.

[11] = system: ethanol-induced narcosis; format: in vivo, male CD1 mice; conditions: mouse, in vivo
Text: It is known that administration of ethanol to mice induces a state of narcosis in the animals. […] It is also known that certain compounds can modify the narcotic effect of ethanol in this model.
Animals: Male CD1 mice (Charles-River Co., Portage, Mich.) weighing 25-30 g were used in the experiments. Upon arrival they were caged in groups of 14 and allowed to acclimatize to laboratory conditions for one week before the beginning of the studies. They were fed standard rodent diet with food and water ad libitum.
Duration of sleep time: Mice received intraperitoneal (i.p.) injections of ethanol and either saline or one of the drug treatments. Upon loss of the righting reflex, a timer was started to record the duration of the sleep time until the reflex was recovered. Two types of experiments were conducted to study the effect of drugs before (pre-treatment) or after (post-treatment) the injection of the narcotic dose of ethanol. In the pre-treatment experiments the drugs were injected i.p., 15 minutes before ethanol. In the post-treatment experiments the drugs were administered i.p., 1 minute after the animals lost the righting reflex, which was approximately 5 minutes after administration of ethanol.
Drugs: Ethanol was prepared as a 20% v/v (16% w/v) solution in saline. Based on previous studies, a dose of 87 mmol/kg (4 g/kg) was selected as the narcotic dose. RO 15-4513, the benzodiazepine receptor inverse agonist discussed in the Background section, was purchased from RBI (Natick, Mass.). It was dissolved in saline solution with Tween-80 and ultrasonically homogenized for 3 minutes. […] The compounds of Examples 2 and 4, both novel neuronal nicotinic receptor ligands according to the present invention, were also dissolved in saline to the desired concentrations.

[12] = system: resting cortical perfusion in the parietotemporal cortex; conditions: humans; cited from earlier work
[13] = system: ethanol-induced narcosis; conditions: literature knowledge; cited from earlier work

COC(=O)C1=CCCN(C)C1 [Arecoline, reference compound]
Ki [1]: 5 µM
Ki ([2]; Table 1, read-out: Nicotinic Receptor Ki): 0.059 µM
Ki ([2]; Table 2, read-out: Nicotinic Ki): 0.059 µM
pharmacokinetics [3]: unfavorable pharmacokinetics

CN1CCCC1c1cccnc1 (single isomer, unassigned; (-)) [(-)-Nicotine]
Elevated Plus-Maze (EPM) doses with significant effect [4]: 0.62 to 1.9 µmol/kg
Elevated Plus-Maze (EPM) result [4]: significant increase in the time spent by the mice in the open arms
Elevated Plus-Maze (EPM) result ([4]; listed as (-)-nicotine): significant
EC50 ([5]; PC12 cells, mean ± S.E.M.): 52 ± 4 µM
1-4 Hz amplitude ([6]; 1.9 μmol/kg i.p.): 13.2 ± 2.0 μVolts
effect on low frequency (1-4 Hz) EEG slow-wave patterns ([6]; i.p.): significant (p<0.05, 2-way ANOVA, Fisher post hoc analysis) attenuation
effect on time spent in the open arms ([7]; 48 h after withdrawal of chronic (-)-nicotine): significant reduction in the time spent in the open arms
TIME OPEN ARMS ([7]; 14 days chronic 10 mg/kg/day then withdrawal, saline challenge, *p < 0.05 against chronic saline, mean ± SEM): 35.1 ± 6.0 s
effect on incidence of spike wave discharges [8]: significantly lowered the incidence of spike wave discharges
effect on motor incoordination due to ethanol [9]: significantly attenuate the motor incoordination due to the effects of ethanol
Inhibitory Avoidance (IA) result [10]: dose-dependent facilitation of retention of the avoidance response
Inhibitory Avoidance (IA) result ([10]; listed as (-)-nicotine): significant
effect of pre-treatment on ethanol sleeping time [11]: significantly reduced the sleeping time of ethanol in mice
Sleeping time ([11]; ip): 121 ± 18 % of controls and 149 ± 28 % of controls and 164 ± 32 % of controls and 232 ± 29 % of controls
effect of post-treatment on ethanol-induced narcosis ([11]; ip): significantly prolonged the narcotic effect of ethanol; also recorded: adversely potentiated the narcotic effect

CNC1(C)C2CCC(C2)C1(C)C (stereo not shown) [Mecamylamine, mecamylamine]
inhibition of the response to Example 2 ([5]; 10 μM antagonist, Example 2 300 μM, N=3): 81±3%
effect on resting cortical perfusion [12]: reduces resting cortical perfusion in the parietotemporal cortex of humans
Total spike wave duration ([8]; Table 10): 45.7 ± 15.0 s
Total spike wave duration ([8]; Table 11): 46.8 ± 6.4 s
effect on incidence of spike wave discharges [8]: did not affect the incidence of spike/wave discharges
blockade of agonist-induced lowering of spike wave discharges ([8]; mecamylamine with (-)-nicotine or Example 2): blocked the effects of both (-)-nicotine and the compound of Example 2

CCCC(C)C1(CC)C(=O)NC(=O)NC1=O (stereo not shown) [pentobarbital]
effect on ethanol sleep time (known) [13]: potentiate the effect of ethanol by increasing the sleep time

CN1C(=O)CN=C(c2ccccc2)c2cc(Cl)ccc21 [Diazepam, diazepam]
effect on incidence of spike wave discharges [8]: significantly lowered these discharges
effect on ethanol sleep time (known) [13]: potentiate the effect of ethanol by increasing the sleep time
